Patent US11802120B2, “Fused cyclic urea derivatives as CRHR2 antagonist” (RaQualia Pharma Inc., priority 2018, dated 2023)

Molecular target: T1, human CRHR2-alpha (Homo sapiens, UniProt Q13324)
T1 sequence (Q13324 1-411): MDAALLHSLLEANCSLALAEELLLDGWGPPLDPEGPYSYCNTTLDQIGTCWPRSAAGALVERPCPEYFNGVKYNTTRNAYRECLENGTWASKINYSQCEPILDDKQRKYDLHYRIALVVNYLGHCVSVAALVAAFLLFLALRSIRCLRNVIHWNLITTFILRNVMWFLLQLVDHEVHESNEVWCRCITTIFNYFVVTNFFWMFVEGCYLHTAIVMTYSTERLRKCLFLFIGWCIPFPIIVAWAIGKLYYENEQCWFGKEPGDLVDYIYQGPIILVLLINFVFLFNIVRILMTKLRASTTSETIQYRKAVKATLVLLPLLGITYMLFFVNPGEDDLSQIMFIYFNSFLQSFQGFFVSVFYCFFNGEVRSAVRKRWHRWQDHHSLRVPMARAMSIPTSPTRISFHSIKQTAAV
Experiment: cAMP functional assay for human CRHR2 (LANCE Ultra cAMP, TR-FRET)
Format: cell-based
Conditions: CHO-K1 cells expressing human CRHR2-alpha, agonist human urocortin2 at EC80, cAMP; read-out: IC50 against CRHR2
In short: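 CHO-K1 stable lines; 4,000 cells/well; compound 30 min, 25° C; EC80 agonist (human urocortin2 → CRHR2, CRF → CRHR1) 30 min, 25° C; buffer HBSS/0.1% BSA/0.5 mM IBMX/5 mM Hepes pH 7.4; Eu-cAMP tracer + ULight antibody 60 min; TR-FRET read; IC50 from % inhibition curves.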

SMILES | IC50
COCCNc1ccc(-n2c(=O)n(C[C@H]3CC[C@H](NC(=O)c4cc(Cl)cnc4C(F)(F)F)CC3)c3ccccc32)cn1 [Example 664, 5-chloro-N-((1r,4r)-4-((3-(6-((2-methoxyethyl)amino)pyridin-3-yl)-2-oxo-2,3-dihydro-1H-benzo[d]imidazol-1-yl)methyl)cyclohexyl)-2-(trifluoromethyl)nicotinamide] | < 300 nM
COCCNc1cc(C#N)c(-n2c(=O)n(C[C@H]3CC[C@H](NC(=O)c4cc(Cl)cnc4C)CC3)c3ccccc32)cn1 [Example 310, 5-chloro-N-((1r,4r)-4-((3-(4-cyano-6-((2-methoxyethyl)amino)pyridin-3-yl)-2-oxo-2,3-dihydro-1H-benzo[d]imidazol-1-yl)methyl)cyclohexyl)-2-methylnicotinamide] | < 300 nM
Cc1ncc(Cl)cc1C(=O)N[C@H]1CC[C@H](Cn2c(=O)n(CC(=O)c3ccccc3)c3ccccc32)CC1 [Example 5, 5-chloro-2-methyl-N-((1r,4r)-4-((2-oxo-3-(2-oxo-2-phenylethyl)-2,3-dihydro-1H-benzo[d]imidazol-1-yl)methyl)cyclohexyl)nicotinamide] | < 300 nM
COc1cc(-n2c(=O)n(C[C@H]3CC[C@H](NC(=O)c4cc(Cl)cnc4C)CC3)c3ccccc32)cnc1OC [Example 118, 5-chloro-N-((1r,4r)-4-((3-(5,6-dimethoxypyridin-3-yl)-2-oxo-2,3-dihydro-1H-benzo[d]imidazol-1-yl)methyl)cyclo-hexyl)-2-methylnicotinamide] | < 300 nM
Cc1ncc(Cl)cc1C(=O)N[C@H]1CC[C@H](Cn2c(=O)n(-c3ccc(-n4cccn4)cc3)c3ccccc32)CC1 [Example 471, N-((1r,4r)-4-((3-(4-(1H-pyrazol-1-yl)phenyl)-2-oxo-2,3-dihydro-1H-benzo[d]imidazol-1-yl)methyl)cyclohexyl)-5-chloro-2-methylnicotinamide] | < 300 nM
COCCOc1ccc(-n2c(=O)n(C[C@H]3CC[C@H](NC(=O)c4cc(Cl)cnc4C(F)F)CC3)c3ccccc32)cn1 [Example 477, 5-chloro-2-(difluoromethyl)-N-((1r,4r)-4-((3-(6-(2-methoxy-ethoxy)pyridin-3-yl)-2-oxo-2,3-dihydro-1H-benzo[d]imidazol-1-yl)methyl)cyclohexyl) nicotinamide] | < 300 nM
Cc1ncc(Cl)cc1C(=O)N[C@H]1CC[C@H](Cn2c(=O)n(-c3ccc4c(c3)nnn4C)c3ccccc32)CC1 [Example 255, 5-chloro-2-methyl-N-((1r,4r)-4-((3-(1-methyl-1H-benzo[d] [1,2,3]triazol-5-yl)-2-oxo-2,3-dihydro-1H-benzo[d]imidazol-1-yl)methyl)cyclohexyl) nicotinamide] | < 300 nM
CNc1ccc(-n2c(=O)n(C[C@H]3CC[C@H](NC(=O)c4cc(Cl)cnc4C)CC3)c3ccccc32)nc1 [Example 574, 5-chloro-2-methyl-N-((1r,4r)-4-((3-(5-(methylamino)pyridin-2-yl)-2-oxo-2,3-dihydro-1H-benzo[d]imidazol-1-yl)methyl)cyclohexyl)nicotinamide] | < 300 nM
Cc1ncc(Cl)cc1C(=O)N[C@H]1CC[C@H](Cn2c(=O)n(-c3ccc(NCC(F)F)nc3)c3ccccc32)CC1 [Example 437, 5-chloro-N-((1r,4r)-4-((3-(6-((2,2-difluoroethyl)amino)pyridin-3-yl)-2-oxo-2,3-dihydro-1H-benzo[d]imidazol-1-yl)methyl)cyclohexyl)-2-methylnicotinamide] | < 300 nM
Cc1ncc(Cl)cc1C(=O)N[C@H]1CC[C@H](Cn2c(=O)n(-c3ccc4[nH]nc(C)c4c3)c3ccccc32)CC1 [Example 170, 5-chloro-2-methyl-N-((1r,4r)-4-((3-(3-methyl-1H-indazol-5-yl)-2-oxo-2,3-dihydro-1H-benzo[d]imidazol-1-yl)methyl)cyclohexyl)nicotinamide] | < 300 nM
O=C(N[C@H]1CC[C@H](Cn2c(=O)n(-c3ccc4ncncc4c3)c3ccccc32)CC1)c1cc(Cl)cnc1C(F)F [Example 394, 5-chloro-2-(difluoromethyl)-N-((1r,4r)-4-((2-oxo-3-(quinazolin-6-yl)-2,3-dihydro-1H-benzo[d]imidazol-1-yl)methyl)cyclohexyl)nicotinamide] | < 300 nM
O=C(N[C@H]1CC[C@H](Cn2c(=O)n(-c3ccc(N[C@H]4CCOC4)nc3)c3ccccc32)CC1)c1cc(Cl)cnc1C(F)F [Example 372, 5-chloro-2-(difluoromethyl)-N-((1S,4r)-4-((2-oxo-3-(6-(((S)-tetrahydrofuran-3-yl)amino)pyridin-3-yl)-2,3-dihydro-1H-benzo[d]imidazol-1-yl)methyl)cyclohexyl)nicotinamide] | < 300 nM

Results, then the compound that gave them:

IC50 | SMILES
< 300 nM | CCNC(=O)c1ccc(-n2c(=O)n(C[C@H]3CC[C@H](NC(=O)c4cc(Cl)cnc4C)CC3)c3ccccc32)cn1 [Example 182, 5-(3-(((1r,4r)-4-(5-chloro-2-methylnicotinamido)cyclo-hexyl)methyl)-2-oxo-2,3-dihydro-1H-benzo[d]imidazol-1-yl)-N-ethylpicolinamide]
< 300 nM | Cc1ncc(Cl)cc1C(=O)N[C@H]1CC[C@H](Cn2c(=O)n(-c3ccc(-c4cccnc4)nc3)c3ccccc32)CC1 [Example 201, N-((1r,4r)-4-((3-([2,3′-bipyridin]-5-yl)-2-oxo-2,3-dihydro-1H-benzo[d]imidazol-1-yl)methyl)cyclohexyl)-5-chloro-2-methylnicotinamide]
< 300 nM | Cc1ncc(Cl)cc1C(=O)N[C@H]1CC[C@H](Cn2c(=O)n(-c3ccc4c(C)n[nH]c4c3)c3ccccc32)CC1 [Example 205, 5-chloro-2-methyl-N-((1r,4r)-4-((3-(3-methyl-1H-indazol-6-yl)-2-oxo-2,3-dihydro-1H-benzo[d]imidazol-1-yl)methyl)cyclohexyl)nicotinamide]
< 300 nM | Cc1cc(N2CCCC2=O)ncc1-n1c(=O)n(C[C@H]2CC[C@H](NC(=O)c3cc(Cl)cnc3C(F)F)CC2)c2ccccc21 [Example 561, 5-chloro-2-(difluoromethyl)-N-((1r,4r)-4-((3-(4-methyl-6-(2-oxopyrrolidin-1-yl)pyridin-3-yl)-2-oxo-2,3-dihydro-1H-benzo[d]imidazol-1-yl)methyl)cyclohexyl) nicotinamide]
< 300 nM | Cc1ncc(Cl)cc1C(=O)N[C@H]1CC[C@H](Cn2c(=O)n(-c3ccc(N4CCOCC4)nc3)c3ccccc32)CC1 [Example 54, 5-chloro-2-methyl-N-((1r,4r)-4-((3-(6-morpholinopyridin-3-yl)-2-oxo-2,3-dihydro-1H-benzo[d]imidazol-1-yl)methyl)cyclohexyl) nicotinamide]
< 300 nM | Cc1ncc(Cl)cc1C(=O)N[C@H]1CC[C@H](Cn2c(=O)n(-c3ccc(NCC4CC4)nc3)c3ccccc32)CC1 [Example 105, 5-chloro-N-((1r,4r)-4-((3-(6-((cyclopropylmethyl)amino)pyridin-3-yl)-2-oxo-2,3-dihydro-1H-benzo[d]imidazol-1-yl)methyl)cyclohexyl)-2-methylnicotinamide]
< 300 nM | Cc1ccc(-n2c(=O)n(C[C@H]3CC[C@H](NC(=O)c4cc(Cl)cnc4C)CC3)c3c(F)cccc32)cn1 [Example 124, 5-chloro-N-((1r,4r)-4-((7-fluoro-3-(6-methylpyridin-3-yl)-2-oxo-2,3-dihydro-1H-benzo[d]imidazol-1-yl)methyl)cyclo-hexyl)-2-methylnicotinamide]
< 300 nM | Cc1ncc(Cl)cc1C(=O)N[C@H]1CC[C@H](Cn2c(=O)n(-c3cnc4c(c3)c(C)cn4C)c3ccccc32)CC1 [Example 409, 5-chloro-N-((1r,4r)-4-((3-(1,3-dimethyl-1H-pyrrolo[2,3-b]pyridin-5-yl)-2-oxo-2,3-dihydro-1H-benzo[d]imidazol-1-yl)methyl)cyclohexyl)-2-methylnicotinamide]
< 300 nM | Cc1ncc(Cl)cc1C(=O)N[C@H]1CC[C@H](Cn2c(=O)n(-c3cccc(-c4ncco4)c3)c3ccccc32)CC1 [Example 516, 5-chloro-2-methyl-N-((1r,4r)-4-((3-(3-(oxazol-2-yl)phenyl)-2-oxo-2,3-dihydro-1H-benzo [d]imidazol-1-yl)methyl)cyclo-hexyl)nicotinamide]
< 300 nM | O=C(N[C@H]1CC[C@H](Cn2c(=O)n(Cc3ccncc3)c3ccccc32)CC1)c1cc(Cl)ccc1C(F)(F)F [Example 281, 5-chloro-N-((1r,4r)-4-((2-oxo-3-(pyridin-4-ylmethyl)-2,3-dihydro-1H-benzo[d]imidazol-1-yl)methyl)cyclohexyl)-2-(trifluoromethyl)benzamide]
< 300 nM | Cc1ccc(-n2c(=O)n(C[C@H]3CC[C@H](NC(=O)c4cc(Cl)cnc4C)CC3)c3cccc(F)c32)cn1 [Example 121, 5-chloro-N-((1r,4r)-4-((4-fluoro-3-(6-methylpyridin-3-yl)-2-oxo-2,3-dihydro-1H-benzo[d]imidazol-1-yl)methyl)cyclo-hexyl)-2-methylnicotinamide]
< 300 nM | CNc1ccc(-n2c(=O)n(C[C@H]3CC[C@H](NC(=O)c4cc(Cl)cnc4C(F)(F)F)CC3)c3ccccc32)cn1 [Example 332, 5-chloro-N-((1r,4r)-4-((3-(6-(methylamino)pyridin-3-yl)-2-oxo-2,3-dihydro-1H-benzo[d]imidazol-1-yl)methyl)cyclohexyl)-2-(trifluoromethyl) nicotinamide]
